Results: US20230240297A1, “SELECTIVE HERBICIDES BASED ON SUBSTITUTED ISOXAZOLIN CARBOXAMIDES AND CYPROSULFAMIDE” (Bayer Aktiengesellschaft, priority 2020, published 2023)

How the values were obtained:
Type in all cases: in vivo, maize
[1] = system: ZEAMA Abraxas; experiment: Tank-mix; post-emergence, crop damage with and without safener
Procedure, shortened: (§1)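 Crops in sandy loam in the greenhouse were sprayed at the 1–3-leaf stage, 2–3 weeks after sowing, with herbicide/safener combinations or the single actives at various dosages in 300 l/ha water. Injury was scored visually 1–3 weeks after treatment as % versus untreated plants (0% none, 100% complete kill).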

[2] = system: ZEAMA Sileno; experiment: Treatment 1 day before (safener applied one day before herbicide, post-emergence); design: key to Reduction [Difference]: percentage points of visually scored % crop damage vs untreated control; conditions: for Reduction [%] / Reduction [Difference]: cyprosulfamide 100 g a.i./ha 1 day before; for HER effect + SAF: cyprosulfamide 100 g a.i./ha applied 1 day before; for HER effect + SAF / HER effect: Final assessment; for HER effect: no safener
Description: Seeds of crops (spring wheat, TRZAS; spring barley, HORVS; maize, ZEAMA) were placed in sandy loam soil in pots of a diameter of 7-8 cm, covered with soil, and cultivated in a greenhouse under good growth conditions until plants were at the 1-3 leaf stage (BBCH 11-13). For split safener and herbicide treatment, first the safener was applied followed by the herbicide treatment on the following day. The safener and herbicides were formulated as WP and sprayed onto the green parts of the plants as an aqueous suspension at an equivalent water application rate of 300 1/ha, with addition of wetting agent and adjuvants (e.g. Mero, 1.5 1/ha; ammonium sulphate, 2 kg/ha). An equivalent set of plants was treated with the herbicides but without the prior safener treatment.
After application, the test plants were kept in the greenhouse under good growth conditions. 10 and 21 days after treatment (DAT) with the herbicide, % crop damage observed on the treated plants was scored visually in comparison to control plants that had not received any safener or herbicide treatment.

[3] = system: ZEAMA Sileno; experiment: Seed treatment with safener; post-emergence herbicide application; design: Reduction [Difference]: scale not given here; conditions: Final assessment; for Reduction [%] / Reduction [Difference]: Cyprosulfamide 0.5 g a.i./kg seed; for Reduction [Difference]: damage without safener - damage with safener; for HER effect + SAF (crop damage with safener): Cyprosulfamide seed treatment 0.5 g a.i./kg seed; for HER effect (crop damage, herbicide without safener): no safener
Procedure, shortened: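 Maize seeds slurry-coated with WP safener (g a.i./kg seed) or left untreated, sown in sandy loam and grown in greenhouse. WP herbicide sprayed post-emergence at BBCH11-13 in 300 l/ha water with wetting agent and adjuvants (e.g. Mero 1.5 l/ha, ammonium sulphate 2 kg/ha); means of at least 2 replicates.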

[4] = system: ZEAMA Sileno; experiment: Tank-mix; post-emergence, crop damage with and without safener; conditions: for HER effect + SAF / HER effect: Final assessment; for HER effect: no safener
Procedure, shortened: as §1

[5] = HER 2 g a.i./ha, cyprosulfamide 50 g a.i./ha
[6] = HER 8 g a.i./ha, cyprosulfamide 50 g a.i./ha
[7] = HER 32 g a.i./ha, cyprosulfamide 100 g a.i./ha

Row | SMILES | Reduction [%] ([2]; HER 8 g a.i./ha) | Reduction [Difference] ([2]; HER 8 g a.i./ha) | Reduction [%] ([2]; HER 32 g a.i./ha) | Reduction [Difference] ([2]; HER 32 g a.i./ha) | HER effect + SAF ([2]; HER dose 8 g a.i./ha) [%] | HER effect ([2]; HER dose 8 g a.i./ha) [%] | HER effect + SAF ([2]; HER dose 32 g a.i./ha) [%] | HER effect ([2]; HER dose 32 g a.i./ha) [%] | Reduction [%] ([3]; HER dose 2 g a.i./ha) | Reduction [Difference] ([3]; HER dose 2 g a.i./ha) | HER effect + SAF (crop damage with safener) ([3]; HER dose 2 g a.i./ha) [%] | HER effect (crop damage, herbicide without safener) ([3]; HER dose 2 g a.i./ha) [%] | Reduction [%] ([3]; HER dose 8 g a.i./ha) | Reduction [Difference] ([3]; HER dose 8 g a.i./ha) | HER effect + SAF (crop damage with safener) ([3]; HER dose 8 g a.i./ha) [%] | HER effect (crop damage, herbicide without safener) ([3]; HER dose 8 g a.i./ha) [%] | Reduction [%] ([3]; HER dose 32 g a.i./ha) | Reduction [Difference] ([3]; HER dose 32 g a.i./ha) | HER effect + SAF (crop damage with safener) ([3]; HER dose 32 g a.i./ha) [%] | HER effect (crop damage, herbicide without safener) ([3]; HER dose 32 g a.i./ha) [%] | also measured
1 | CCCSCCOC(=O)C1C=CC(NC(=O)C2(C)CC(c3cc(F)cc(F)c3)=NO2)C1 (stereo not drawn) [Example 1.34] | 60 | 30 | 44 | 20 | 20 | 50 | 25 | 45 | 100 | 20 | 0 | 20 | 80 | 40 | 10 | 50 | 78 | 35 | 10 | 45 | Reduction [%] [1, 5]: 50%; Reduction [Difference] [1, 5]: 25; HER effect + SAF ([1]; HER dose 2 g a.i./ha + cyprosulfamide 50 g a.i./ha tank-mix, Final assessment): 25%; HER effect ([1]; HER dose 2 g a.i./ha, no safener, Final assessment): 50%
2 | CC1(C(=O)NC2C=CC(C(=O)O)C2)CC(c2cc(F)cc(F)c2)=NO1 (stereo not drawn) [Example 1.36] | 69 | 55 | 67 | 50 | 25 | 80 | 25 | 75 | 88 | 35 | 5 | 40 | 94 | 75 | 5 | 80 | 87 | 65 | 10 | 75 | Reduction [%] [4, 5]: 50%; Reduction [Difference] ([4]; HER 2 g a.i./ha, cyprosulfamide 50 g a.i./ha, damage without safener - damage with safener): 20; Reduction [%] [4, 6]: 63%; Reduction [Difference] [4, 6]: 50; HER effect + SAF ([4]; HER dose 2 g a.i./ha + cyprosulfamide 50 g a.i./ha tank-mix): 20%; HER effect ([4]; HER dose 2 g a.i./ha, 0% = no injury, 100% = complete kill): 40%; HER effect + SAF ([4]; HER dose 8 g a.i./ha + cyprosulfamide 50 g a.i./ha tank-mix): 30%; HER effect ([4]; HER dose 8 g a.i./ha): 80%; Reduction [%] ([2]; HER 2 g a.i./ha): 63%; Reduction [Difference] ([2]; HER 2 g a.i./ha): 25; HER effect + SAF ([2]; HER dose 2 g a.i./ha): 15%; HER effect ([2]; HER dose 2 g a.i./ha): 40%
3 | CC1(C(=O)NC2C=CC(C(=O)OCCSCc3ccccc3)C2)CC(c2cc(F)cc(F)c2)=NO1 (stereo not drawn) [Example 1.27] | – | – | 67 | 40 | – | – | 20 | 60 | – | – | – | – | 83 | 25 | 5 | 30 | 75 | 45 | 15 | 60 | Reduction [%] [4, 7]: 67%; Reduction [Difference] [4, 7]: 40; HER effect + SAF ([4]; HER dose 32 g a.i./ha + cyprosulfamide 100 g a.i./ha tank-mix): 20%; HER effect ([4]; HER dose 32 g a.i./ha): 60%
